Data from US8017557B2, “Benzodioxole derivatives as modulators of proteolytic activity in plants” (Endura S.p.A., priority 2002, dated 2011).
Read-outs that look alike come from different tables or passages of the source.

What was measured:
ficin = settings: Wo 25, HEPES pH 7.1, 30° C.
Procedure: Reverse micelles assay of ISO-AOT 50 mM (AOT: twin aerosol (2-ethylhexylsodiumsulfosuccinate in isooctane (ISO)); Wo (H2O/AOT)=25
The assays were carried out in the reverse-micelles assay dispersed in organic solvent, described by Walde et al. in Eur. J. Biochem., 1988, 173:401-409, and already reported in the literature in kinetic studies of the inhibition of trypsin with natural and synthetic inhibitors. […]
The enzyme assay on reverse-micelle has been already described in the literature for the enzyme trypsin and was adapted to different enzymes. […] To this solution was added an appropriate volume of substrate CBZ (dissolved in acetonitrile/H2O, 80:20 (v/v) at a concentration of 15 mM) and following further agitation (the solution returned to being transparent), the change in absorbance was measured (Dabs) at 340 nm with a Cary 219 spectrophotometer.
The experimental data obtained are represented graphically in the form of Dixon-plot (described for example in: “Quantitative Problems in Biochemistry”, E A. Dawes, 5th ed. 1972 Baltimore, The Williams and Wilkins Company), in the FIGS. 1, 2 and 3.

bromelain = bromelain (Ananas comosus, UniProt P14518); settings: for initial velocity, Mean / initial velocity, test 1 / initial velocity, test 2 / Mean (% contr.): 1% PBO; for Mean (% contr.): % of control
Procedure: The assay was carried out as described in Heinrikson & Kezdy, 1976, Methods in Enzymol. 45, p. 740. The conditions are summarised briefly herein: 50 μg of bromelain was mixed with variable quantities of Na CBZ-L-lysine p-nitrophenyl ester substrate in 3 ml of 10 mM acetate buffer pH 4.6 containing KCl (0.1 M) and L-cystein (1 mM).

[1] = system: endopeptidase activity in cotton sprouts; settings: for absorbance reading, Mean, Cotton Sprouts Treated with PBO / absorbance reading, replicate 1, Cotton Sprouts Treated with PBO / absorbance reading, replicate 2, Cotton Sprouts Treated with PBO / absorbance reading, replicate 3, Cotton Sprouts Treated with PBO / Endopeptidase Activity (U × 10^3), Cotton Sprouts Treated with PBO: pH 7.7; for absorbance reading, Mean, Cotton Sprouts Treated with PBO / absorbance reading, replicate 1, Cotton Sprouts Treated with PBO / absorbance reading, replicate 2, Cotton Sprouts Treated with PBO / absorbance reading, replicate 3, Cotton Sprouts Treated with PBO / % difference of endopeptidase activity, treated vs untreated / Endopeptidase Activity (U × 10^3), Cotton Sprouts Treated with PBO: 4 days of germination, PBO 1% w/v; for Δ U (endopeptidase activity, untreated vs PBO treated): same scale as Activity (U × 10^3)
Procedure: The extent of hydrolytic activity in cotton sprouts was measured at 15′, 30′, 60′, 90′ and 120′ after solubilization of the acetonic powder in aqueous buffer at pH 7.7 by determining the absorbance at 280 nm in a quartz cuvette after protein precipitation with TCA and removal by centrifugation. Each series of analysis was performed in […]. The comparison between the values of […] activity in treated (dark grey) and untreated (light grey) samples was done using the average value of each series of analysis. Abscissa: time (min); ordinate: Abs 280 nm.
The basic idea was to “freeze” the physiologic protein hydrolysis enzymatic activity and to re-establish the process simply solubilizing the proteolytic enzymatic system in suitable buffers, which were 0.1 M phosphate pH 6.5 and 0.1 M tris-HCl pH 7.7, for evaluating both the carboxypeptidase and the endopeptidase activities according to the method described by Hile et al. 1972; Funkhouser et al. 1980.
Cotton seeds (cv. Carmela) were obtained from “Semillas Battle”, Barcelona (E).
The seeds were previously rinsed in tap water and then imbibed with aeration in distilled water over night (Funkhouser, E. A. et al., Z. Pflanzenphysiol., 1980, 100, 319-324).
The plastic boxes containing seeds were covered by a plastic film and placed in a germinator in the dark for 4 days at 30° C. as described in Hile, J. N. and Dure, L. S. J. Biol. Chem., 1972, 247: 5034-5040.
The cotton sprouts of 4 days were collected and frozen in liquid nitrogen and freeze dried (Hile et al. 1972). After this process, the material was crushed in a pestle and freed from fibrous material and settled up to obtain a pretty homogeneous meal of about 0.5 mesh.
The meals were defatted using n-hexane (1:10 w/v) at room temperature and then treated with acetone at −20° C. to remove pigments and polyphenolic compounds, in this case mainly gossypol. The powders obtained were stored in a dry box at room temperature.
The acetonic powder (30 mg) was suspended in buffer (4 ml) and incubated at 37° C. for 15′, 30, 60, 90, 120 minutes. The proteolysis was stopped adding 1 ml of 12% trichloroacetic acid. In this case the buffer used was 0.1 M phosphate pH 7.7 (Funkhouser et al. 1980). The control was a suspension of the same sample prepared in the same way but was immediately deactivated, adding up 1 ml of trichloroacetic acid. The trials with treated and untreated samples were carried out at the same time.
Proteins were precipitated with trichloroacetic acid and then removed by filtration, before with Whatman paper n. 4 and then by micro-filtration (Orange Scientific Braine I'Alleud, Belgium (Ø0.2 μm)). Finally, the hydrolyzed protein samples were analyzed as clear solutions by determining the absorbance at 280 nm in a quartz cuvette.
Each series of analysis was performed threefold. The comparison between the values of endopeptidase activity of treated and untreated samples was done using the average value of each series of analysis.

[2] = PBO 0.334 % (w/w), substrate 240 μM
[3] = PBO 0.5 % (w/w), substrate 240 μM
[4] = PBO 0.667 % (w/w), substrate 240 μM
[5] = PBO 1 % (w/w), substrate 240 μM
[6] = PBO 1.334 % (w/w), substrate 240 μM
[7] = PBO 1.667 % (w/w), substrate 240 μM
[8] = Time 0 (immediately deactivated)

Chain of bromelain (P14518 whole entry): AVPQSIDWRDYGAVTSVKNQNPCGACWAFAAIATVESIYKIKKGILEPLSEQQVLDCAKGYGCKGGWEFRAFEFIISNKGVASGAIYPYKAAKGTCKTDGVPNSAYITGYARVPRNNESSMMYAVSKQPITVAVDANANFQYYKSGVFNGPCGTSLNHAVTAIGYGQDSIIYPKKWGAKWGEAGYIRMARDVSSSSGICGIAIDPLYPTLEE

SMILES: CCCCOCCOCCOCc1cc2c(cc1CCC)OCO2 [PBO, 5-[[2-(2-Butoxyethoxy)ethoxy]methyl]-6-propyl-1,3-benzodioxole]
- IC50 (ficin; read-out: IC50 of PBO on ficin, evaluated from Dixon plot): 800 µM
- Ki (ficin; read-out: inhibition constant (KI) of PBO on the enzyme ficin, Dixon plot, substrate CBZ 1.5×10^−4 M and 6×10^−5 M): 450 µM
- initial velocity, Mean (bromelain; substrate 24 μM): 0.0136 absorbance at 340 nm/min
- initial velocity, test 1 (bromelain; substrate 24 μM): 0.0141 absorbance at 340 nm/min
- initial velocity, test 2 (bromelain; substrate 24 μM): 0.0130 absorbance at 340 nm/min
- Mean (% contr.) (bromelain; substrate 24 μM): 68%
- initial velocity, Mean (bromelain; substrate 48 μM): 0.0270 absorbance at 340 nm/min
- initial velocity, test 1 (bromelain; substrate 48 μM): 0.0243 absorbance at 340 nm/min
- initial velocity, test 2 (bromelain; substrate 48 μM): 0.0297 absorbance at 340 nm/min
- Mean (% contr.) (bromelain; substrate 48 μM): 68%
- initial velocity, Mean (bromelain; substrate 96 μM): 0.0490 absorbance at 340 nm/min
- initial velocity, test 1 (bromelain; substrate 96 μM): 0.0518 absorbance at 340 nm/min
- initial velocity, test 2 (bromelain; substrate 96 μM): 0.0461 absorbance at 340 nm/min
- Mean (% contr.) (bromelain; substrate 96 μM): 78%
- Initial velocity (% of control), Exp. 1 (bromelain; [2]): 95%
- Initial velocity (% of control), Exp. 2 (bromelain; [2]): 98%
- Initial velocity, Exp. 1 (bromelain; [2]): 0.1306 absorbance at 340 nm/min
- Initial velocity, Exp. 2 (bromelain; [2]): 0.1197 absorbance at 340 nm/min
- Initial velocity, Exp. 3 (bromelain; [2]): 0.1029 absorbance at 340 nm/min
- Initial velocity (% of control), Exp. 1 (bromelain; [3]): 91%
- Initial velocity, Exp. 1 (bromelain; [3]): 0.1252 absorbance at 340 nm/min
- Initial velocity (% of control), Exp. 2 (bromelain; [4]): 88%
- Initial velocity, Exp. 2 (bromelain; [4]): 0.1079 absorbance at 340 nm/min
- Initial velocity (% of control), Exp. 1 (bromelain; [5]): 86%
- Initial velocity (% of control), Exp. 2 (bromelain; [5]): 86%
- Initial velocity, Exp. 1 (bromelain; [5]): 0.1194 absorbance at 340 nm/min
- Initial velocity, Exp. 2 (bromelain; [5]): 0.1057 absorbance at 340 nm/min
- Initial velocity (% of control), Exp. 2 (bromelain; [6]): 84%
- Initial velocity, Exp. 2 (bromelain; [6]): 0.1029 absorbance at 340 nm/min
- Initial velocity (% of control), Exp. 2 (bromelain; [7]): 76%
- Initial velocity, Exp. 2 (bromelain; [7]): 0.0927 absorbance at 340 nm/min
- PBO concentration with inhibitory activity on bromelain (bromelain; substrate 240 μM, concentration dependent): higher than 0.5%
- endopeptidase activity in PBO treated cotton sprouts ([1]; FIG. 5, treated vs untreated cotton sprouts): lower than in the untreated ones
- absorbance reading, Mean, Cotton Sprouts Treated with PBO [1, 8]: 868.00
- absorbance reading, replicate 1, Cotton Sprouts Treated with PBO [1, 8]: 821.00
- absorbance reading, replicate 2, Cotton Sprouts Treated with PBO [1, 8]: 897.00
- absorbance reading, replicate 3, Cotton Sprouts Treated with PBO [1, 8]: 886.00
- % difference of endopeptidase activity, treated vs untreated ([1]; Time 15′): 47.86%
- Endopeptidase Activity (U × 10^3), Cotton Sprouts Treated with PBO ([1]; Time 15′): 50.67 U × 10^3
- absorbance reading, Mean, Cotton Sprouts Treated with PBO ([1]; Time 15′): 918.67
- absorbance reading, replicate 1, Cotton Sprouts Treated with PBO ([1]; Time 15′): 965.00
- absorbance reading, replicate 2, Cotton Sprouts Treated with PBO ([1]; Time 15′): 876.00
- absorbance reading, replicate 3, Cotton Sprouts Treated with PBO ([1]; Time 15′): 915.00
- Δ U (endopeptidase activity, untreated vs PBO treated) ([1]; Time 15′): 46.50 U
- % difference of endopeptidase activity, treated vs untreated ([1]; Time 30′): 29.00%
- Endopeptidase Activity (U × 10^3), Cotton Sprouts Treated with PBO ([1]; Time 30′): 82.00 U × 10^3
- absorbance reading, Mean, Cotton Sprouts Treated with PBO ([1]; Time 30′): 950.00
- absorbance reading, replicate 1, Cotton Sprouts Treated with PBO ([1]; Time 30′): 965.00
- absorbance reading, replicate 2, Cotton Sprouts Treated with PBO ([1]; Time 30′): 935.00
- absorbance reading, replicate 3, Cotton Sprouts Treated with PBO ([1]; Time 30′): 950.00
- Δ U (endopeptidase activity, untreated vs PBO treated) ([1]; Time 30′): 33.50 U
- % difference of endopeptidase activity, treated vs untreated ([1]; Time 60′): 12.86%
- Endopeptidase Activity (U × 10^3), Cotton Sprouts Treated with PBO ([1]; Time 60′): 148.00 U × 10^3
- absorbance reading, Mean, Cotton Sprouts Treated with PBO ([1]; Time 60′): 1016.00
- absorbance reading, replicate 1, Cotton Sprouts Treated with PBO ([1]; Time 60′): 1038.00
- absorbance reading, replicate 2, Cotton Sprouts Treated with PBO ([1]; Time 60′): 1038.00
- absorbance reading, replicate 3, Cotton Sprouts Treated with PBO ([1]; Time 60′): 972.00
- Δ U (endopeptidase activity, untreated vs PBO treated) ([1]; Time 60′): 21.83 U
- % difference of endopeptidase activity, treated vs untreated ([1]; Time 90′): 28.80%
- Endopeptidase Activity (U × 10^3), Cotton Sprouts Treated with PBO ([1]; Time 90′): 127.33 U × 10^3
- absorbance reading, Mean, Cotton Sprouts Treated with PBO ([1]; Time 90′): 995.33
- absorbance reading, replicate 1, Cotton Sprouts Treated with PBO ([1]; Time 90′): 1015.00
- absorbance reading, replicate 2, Cotton Sprouts Treated with PBO ([1]; Time 90′): 991.00
- absorbance reading, replicate 3, Cotton Sprouts Treated with PBO ([1]; Time 90′): 980.00
- Δ U (endopeptidase activity, untreated vs PBO treated) ([1]; Time 90′): 51.50 U
- % difference of endopeptidase activity, treated vs untreated ([1]; Time 120′): 22.48%
- Endopeptidase Activity (U × 10^3), Cotton Sprouts Treated with PBO ([1]; Time 120′): 129.33 U × 10^3
- absorbance reading, Mean, Cotton Sprouts Treated with PBO ([1]; Time 120′): 997.33
- absorbance reading, replicate 1, Cotton Sprouts Treated with PBO ([1]; Time 120′): 1017.00
- absorbance reading, replicate 2, Cotton Sprouts Treated with PBO ([1]; Time 120′): 960.00
- absorbance reading, replicate 3, Cotton Sprouts Treated with PBO ([1]; Time 120′): 1015.00
- Δ U (endopeptidase activity, untreated vs PBO treated) ([1]; Time 120′): 37.50 U
